Tests used:
[1] = biological target: nucleolin (UniProt P19338); experiment: fluorescence titration; conditions: Fluorescence titration: buffer for the nucleolin titration not stated separately (C8-aptamer titrations: 30 mM potassium phosphate pH 7.2, 100 mM KCl)
[2] = tested on: U-AS1411 (DNA, G4, uracil in place of thymine at 12 and 13 (text: dT to rU substitutions)) GGTGGTGGTGGUUGTGGTGGTGGTGG; experiment: fluorescence titration of ligand, Hill model; conditions: 100 mM KCl, 30 mM potassium phosphate; pH 7.2; 5 μM C8; apparent; Hill n 2.5; SD ≤ 1 × 10^−8 M
[3] = tested on: AS1411 (DNA, G4) GGTGGTGGTGGTTGTGGTGGTGGTGG; experiment: CD melting; conditions: 10 mM KCl, 90 mM LiCl; 10 mM lithium cacodylate, pH 7.2; 2 molar equivalents C8; Tm without ligand 56.3 °C
[4] = tested on: 5'-FAM-AS1411-TAMRA-3' (DNA, G4) GGTGGTGGTGGTTGTGGTGGTGGTGG; experiment: FRET melting; conditions: 10 mM KCl, 90 mM LiCl; 10 mM lithium cacodylate, pH 7.2; 1 µM C8, 0.2 µM DNA; no nucleolin; Tm 46.9 °C
[5] = tested on: AS1411 (DNA, G4) GGTGGTGGTGGTTGTGGTGGTGGTGG; experiment: fluorescence titration of ligand, Hill model; conditions: 100 mM KCl, 30 mM potassium phosphate; pH 7.2; 5 μM C8; apparent; Hill n 2.8; SD ≤ 1 × 10^−8 M
[6] = tested on: U-AS1411 (DNA, G4, uracil in place of thymine at 12 and 13 (text: dT to rU substitutions)) GGTGGTGGTGGUUGTGGTGGTGGTGG; experiment: CD melting; conditions: 10 mM KCl, 90 mM LiCl; 10 mM lithium cacodylate, pH 7.2; 2 molar equivalents C8; Tm without ligand 52.6 °C

Chain of UniProt P19338 (P19338 whole entry): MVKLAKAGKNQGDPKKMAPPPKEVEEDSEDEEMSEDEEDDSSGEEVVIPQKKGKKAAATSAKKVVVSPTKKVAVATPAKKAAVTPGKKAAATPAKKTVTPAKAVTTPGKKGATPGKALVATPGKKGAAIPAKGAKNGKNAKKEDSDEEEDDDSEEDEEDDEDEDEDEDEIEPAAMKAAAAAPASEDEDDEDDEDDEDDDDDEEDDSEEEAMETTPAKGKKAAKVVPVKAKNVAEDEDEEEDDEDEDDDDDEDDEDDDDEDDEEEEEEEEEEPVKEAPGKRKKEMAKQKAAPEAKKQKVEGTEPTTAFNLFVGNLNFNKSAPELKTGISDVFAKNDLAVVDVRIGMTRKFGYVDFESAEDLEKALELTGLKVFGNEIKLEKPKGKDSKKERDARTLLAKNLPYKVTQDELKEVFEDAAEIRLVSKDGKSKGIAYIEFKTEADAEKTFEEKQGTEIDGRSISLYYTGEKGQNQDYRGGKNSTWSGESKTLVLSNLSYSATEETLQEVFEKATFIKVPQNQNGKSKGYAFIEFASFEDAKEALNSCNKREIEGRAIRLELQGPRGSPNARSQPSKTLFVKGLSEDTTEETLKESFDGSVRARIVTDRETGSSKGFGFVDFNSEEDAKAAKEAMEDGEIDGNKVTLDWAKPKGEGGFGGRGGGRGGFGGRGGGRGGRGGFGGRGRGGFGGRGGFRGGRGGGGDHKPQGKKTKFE

KD [2]	ΔTm [3]	ΔTm [4]	KD [5]	ΔTm [6]	Compound	Kd ([1]; no C8, Cy3-AS1411 at 1 uM (Kd far below probe concentration))	Kd ([1]; with ligand C8, Cy3-AS1411 at 1 uM (Kd far below probe concentration))
					GGTGGTGGTGGTTGTGGTGGTGGTGG [Cy3-AS1411]	8.63 pM	6.38 pM
1.37 µM	28.4 ± 0.2 °C	13.1 ± 0.8 °C	1.29 µM	24.5 ± 0.4 °C	CN(C)c1ccc2cc3ccc(N(C)C)cc3[n+](CCCCCCCCNC(=O)c3ccc(I)cc3)c2c1		

— paper PMC6538641 (2019)
